The record followed here is ChEMBL document CHEMBL1201862, “PubChem BioAssay data set” (2004).

Each structure is given as a SMILES string. Calls of active or inactive are those of the source.

The target in assay [1] is T1, Ubiquitin-conjugating enzyme E2 N (Homo sapiens, UniProt P61088).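 Further: Dose-response confirmation in a TR-FRET assay detecting UBC13-driven polyubiquitin chain formation, inhibition measured.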
T1 sequence (P61088 whole entry): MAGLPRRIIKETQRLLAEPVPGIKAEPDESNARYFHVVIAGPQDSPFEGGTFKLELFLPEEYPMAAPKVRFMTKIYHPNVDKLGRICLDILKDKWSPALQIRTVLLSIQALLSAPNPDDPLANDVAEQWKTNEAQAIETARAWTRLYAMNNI
Type of assay: functional.

Assay [2] concerns the target Polyadenylate-binding protein 1 (Homo sapiens, UniProt P11940). The experiment in a line: PABP1 MLLE–PAM2 binding inhibitor potency, dose response, biochemical, fluorescence polarization, FITC-PAM2 peptide (AID 602259). Format: functional. The following applies: read-out: IC50_Mean. (Polarisation of emitted light reports the rotation of a fluorescent probe.)
For assay [3], the target named is T2, Sentrin-specific protease 7 (Homo sapiens, UniProt Q9BQF6).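 Further: Luminescence-based dose-response confirmation of ultra-high-throughput screening hits, measuring inhibition of SENP7.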
T2 sequence (Q9BQF6 whole entry): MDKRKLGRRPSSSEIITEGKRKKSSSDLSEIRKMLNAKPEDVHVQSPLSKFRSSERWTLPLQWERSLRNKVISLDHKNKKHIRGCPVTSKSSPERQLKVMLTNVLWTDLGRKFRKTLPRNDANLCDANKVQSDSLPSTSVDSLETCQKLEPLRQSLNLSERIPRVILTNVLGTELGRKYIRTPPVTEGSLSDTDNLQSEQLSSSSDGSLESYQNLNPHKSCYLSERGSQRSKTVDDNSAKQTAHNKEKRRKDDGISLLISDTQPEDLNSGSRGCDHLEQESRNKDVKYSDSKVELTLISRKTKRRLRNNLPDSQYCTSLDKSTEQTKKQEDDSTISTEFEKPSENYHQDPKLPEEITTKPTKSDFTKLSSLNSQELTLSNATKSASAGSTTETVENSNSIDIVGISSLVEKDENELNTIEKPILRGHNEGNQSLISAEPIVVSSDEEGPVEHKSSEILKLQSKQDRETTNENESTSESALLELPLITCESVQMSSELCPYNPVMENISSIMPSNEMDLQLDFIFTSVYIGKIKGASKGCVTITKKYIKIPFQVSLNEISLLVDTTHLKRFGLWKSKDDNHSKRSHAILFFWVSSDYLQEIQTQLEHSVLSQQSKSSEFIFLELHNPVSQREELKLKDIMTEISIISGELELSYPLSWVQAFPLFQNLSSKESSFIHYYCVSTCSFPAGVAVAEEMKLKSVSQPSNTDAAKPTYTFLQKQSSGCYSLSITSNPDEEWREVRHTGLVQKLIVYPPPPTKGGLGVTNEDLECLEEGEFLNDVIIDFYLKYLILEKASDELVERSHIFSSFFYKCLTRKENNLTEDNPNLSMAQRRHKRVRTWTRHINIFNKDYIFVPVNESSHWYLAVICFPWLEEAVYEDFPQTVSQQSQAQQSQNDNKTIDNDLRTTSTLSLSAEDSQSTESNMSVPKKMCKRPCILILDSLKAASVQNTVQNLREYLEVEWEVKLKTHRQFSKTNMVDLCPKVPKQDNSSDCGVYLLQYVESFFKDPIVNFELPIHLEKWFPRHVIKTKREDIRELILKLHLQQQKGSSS
Type of assay: functional.

Assay [4] concerns the target T3, Serine/threonine-protein phosphatase (Homo sapiens, UniProt Q9BPW0).
T3 sequence (Q9BPW0 whole entry): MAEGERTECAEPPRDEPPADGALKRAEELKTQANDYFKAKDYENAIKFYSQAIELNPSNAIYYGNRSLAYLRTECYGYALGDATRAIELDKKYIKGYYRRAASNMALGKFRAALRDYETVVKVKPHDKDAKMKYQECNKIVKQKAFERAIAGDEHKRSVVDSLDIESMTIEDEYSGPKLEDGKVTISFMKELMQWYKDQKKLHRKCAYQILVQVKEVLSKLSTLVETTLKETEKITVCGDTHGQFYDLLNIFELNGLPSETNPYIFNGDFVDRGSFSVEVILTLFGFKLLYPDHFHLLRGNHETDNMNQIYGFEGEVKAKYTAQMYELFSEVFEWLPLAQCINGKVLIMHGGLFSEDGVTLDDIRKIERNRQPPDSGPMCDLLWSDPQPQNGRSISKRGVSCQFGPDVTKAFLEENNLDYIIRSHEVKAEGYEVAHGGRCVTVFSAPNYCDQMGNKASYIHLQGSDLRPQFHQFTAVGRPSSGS
The assay is described as follows: PP5 phosphatase inhibitors, dose response, biochemical, fluorescence (AID 2395).

Assay [5] addresses Fructose-bisphosphate aldolase (Mycobacterium tuberculosis, UniProt P9WQA3). The experiment in a line: Fluorescence-based biochemical high throughput dose response assay for inhibitors of the fructose-bisphosphate aldolase (FBA) of M. tuberculosis. Type of assay: functional.
In assay [6] the target is T4, Caspase-3 (Homo sapiens, UniProt P42574).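 Further: Dose-response selectivity test against caspase-3 for candidate inhibitors of sentrin-specific proteases (SENPs).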
T4 sequence (P42574 whole entry): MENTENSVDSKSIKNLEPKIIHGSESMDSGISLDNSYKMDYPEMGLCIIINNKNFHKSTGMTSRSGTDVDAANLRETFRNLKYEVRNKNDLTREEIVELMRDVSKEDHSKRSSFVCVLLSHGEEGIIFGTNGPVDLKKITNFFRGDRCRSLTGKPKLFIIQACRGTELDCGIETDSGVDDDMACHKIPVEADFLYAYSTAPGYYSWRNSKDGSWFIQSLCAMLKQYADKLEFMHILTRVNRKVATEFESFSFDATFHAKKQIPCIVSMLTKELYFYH
Type of assay: functional.

For assay [7], the system named is A-375. The assay is described as follows: A375 melanoma cell viability reduction, dose response, counter-screen for MITF modulator project, cherry-pick samples, set 2 (AID 540335). Type of assay: functional, cell-based. Conditions: Homo sapiens. Background: A counterscreen serves to expose hits that act by an unwanted route or on another target.
Assay [8] concerns CHO. The assay is described as follows: cytotoxicity in TLR9-MyD88 CHO cells, dose response, cytotoxicity control for TLR9-MyD88 binding inhibitor project, cell-based, luminescence (AID 588339).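 Further: CHO cells stably coexpressing TLR9 and MyD88 fusions from primary screen; compound exposure lasted 48 hours before viability readout.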 The following applies: Cricetulus griseus. Format: functional, hamster.
Assay [9] has as its target Endoribonuclease toxin MazF (Escherichia coli K-12, UniProt P0AE70). The assay is described as follows: fluorescent RNA oligo signal without MazF, dose response, counter-screen for MazEF activator project, biochemical, fluorescence, single-stranded RNase substrate (AID 588502). Format: functional.
Assay [10] is described as follows: HepG2 cell cytotoxicity, dose response, cytotoxicity control for Shn3 inhibitor project, CellTiter-Glo, cherry-picked (AID 624134). Format: functional, cell-based.
The test system of assay [11] is BJ. The assay is described as follows: cells. Format: functional, cell-based. Conditions: Homo sapiens.
A short description of assay [12]: RKO cell viability reduction, dose response, CellTiter-Glo luminescence (AID 1117322). Type of assay: functional. In general terms: In ATP-based viability assays light output follows the ATP content of the culture.
Assay [13] in a line: cytotoxicity toward HCT116 cells – cell-based, CellTiter-Glo luminescence, IC50, dose response (AID 1117332). Format: functional. Conditions: HCT-116.
In assay [14] the target is T5, Fatty acid synthase (Homo sapiens, UniProt P49327). The assay is described as follows: FAS thioesterase domain inhibitors, dose response, biochemical, kinetic fluorescence intensity (AID 624326).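 Further: rate of fluorescence rise from hydrolysis of a fluorogenic O-methyl fluorescein ester substrate.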 Type of assay: functional.
Assay [15] in a line: HeLa 4N DNA content increase, dose response, cell-based, IC50 (AID 1117351). Format: functional.
In assay [16] the target is T5, Fatty acid synthase. The experiment in a line: FAS thioesterase domain inhibitors, dose response, biochemical, endpoint fluorescence intensity, uHTS hits (AID 624327).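 Further: fluorescence from hydrolysis of an O-methyl fluorescein acyl ester substrate by the enzyme.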 Type of assay: functional.

T5 sequence (P49327 whole entry, the tested form may be a part): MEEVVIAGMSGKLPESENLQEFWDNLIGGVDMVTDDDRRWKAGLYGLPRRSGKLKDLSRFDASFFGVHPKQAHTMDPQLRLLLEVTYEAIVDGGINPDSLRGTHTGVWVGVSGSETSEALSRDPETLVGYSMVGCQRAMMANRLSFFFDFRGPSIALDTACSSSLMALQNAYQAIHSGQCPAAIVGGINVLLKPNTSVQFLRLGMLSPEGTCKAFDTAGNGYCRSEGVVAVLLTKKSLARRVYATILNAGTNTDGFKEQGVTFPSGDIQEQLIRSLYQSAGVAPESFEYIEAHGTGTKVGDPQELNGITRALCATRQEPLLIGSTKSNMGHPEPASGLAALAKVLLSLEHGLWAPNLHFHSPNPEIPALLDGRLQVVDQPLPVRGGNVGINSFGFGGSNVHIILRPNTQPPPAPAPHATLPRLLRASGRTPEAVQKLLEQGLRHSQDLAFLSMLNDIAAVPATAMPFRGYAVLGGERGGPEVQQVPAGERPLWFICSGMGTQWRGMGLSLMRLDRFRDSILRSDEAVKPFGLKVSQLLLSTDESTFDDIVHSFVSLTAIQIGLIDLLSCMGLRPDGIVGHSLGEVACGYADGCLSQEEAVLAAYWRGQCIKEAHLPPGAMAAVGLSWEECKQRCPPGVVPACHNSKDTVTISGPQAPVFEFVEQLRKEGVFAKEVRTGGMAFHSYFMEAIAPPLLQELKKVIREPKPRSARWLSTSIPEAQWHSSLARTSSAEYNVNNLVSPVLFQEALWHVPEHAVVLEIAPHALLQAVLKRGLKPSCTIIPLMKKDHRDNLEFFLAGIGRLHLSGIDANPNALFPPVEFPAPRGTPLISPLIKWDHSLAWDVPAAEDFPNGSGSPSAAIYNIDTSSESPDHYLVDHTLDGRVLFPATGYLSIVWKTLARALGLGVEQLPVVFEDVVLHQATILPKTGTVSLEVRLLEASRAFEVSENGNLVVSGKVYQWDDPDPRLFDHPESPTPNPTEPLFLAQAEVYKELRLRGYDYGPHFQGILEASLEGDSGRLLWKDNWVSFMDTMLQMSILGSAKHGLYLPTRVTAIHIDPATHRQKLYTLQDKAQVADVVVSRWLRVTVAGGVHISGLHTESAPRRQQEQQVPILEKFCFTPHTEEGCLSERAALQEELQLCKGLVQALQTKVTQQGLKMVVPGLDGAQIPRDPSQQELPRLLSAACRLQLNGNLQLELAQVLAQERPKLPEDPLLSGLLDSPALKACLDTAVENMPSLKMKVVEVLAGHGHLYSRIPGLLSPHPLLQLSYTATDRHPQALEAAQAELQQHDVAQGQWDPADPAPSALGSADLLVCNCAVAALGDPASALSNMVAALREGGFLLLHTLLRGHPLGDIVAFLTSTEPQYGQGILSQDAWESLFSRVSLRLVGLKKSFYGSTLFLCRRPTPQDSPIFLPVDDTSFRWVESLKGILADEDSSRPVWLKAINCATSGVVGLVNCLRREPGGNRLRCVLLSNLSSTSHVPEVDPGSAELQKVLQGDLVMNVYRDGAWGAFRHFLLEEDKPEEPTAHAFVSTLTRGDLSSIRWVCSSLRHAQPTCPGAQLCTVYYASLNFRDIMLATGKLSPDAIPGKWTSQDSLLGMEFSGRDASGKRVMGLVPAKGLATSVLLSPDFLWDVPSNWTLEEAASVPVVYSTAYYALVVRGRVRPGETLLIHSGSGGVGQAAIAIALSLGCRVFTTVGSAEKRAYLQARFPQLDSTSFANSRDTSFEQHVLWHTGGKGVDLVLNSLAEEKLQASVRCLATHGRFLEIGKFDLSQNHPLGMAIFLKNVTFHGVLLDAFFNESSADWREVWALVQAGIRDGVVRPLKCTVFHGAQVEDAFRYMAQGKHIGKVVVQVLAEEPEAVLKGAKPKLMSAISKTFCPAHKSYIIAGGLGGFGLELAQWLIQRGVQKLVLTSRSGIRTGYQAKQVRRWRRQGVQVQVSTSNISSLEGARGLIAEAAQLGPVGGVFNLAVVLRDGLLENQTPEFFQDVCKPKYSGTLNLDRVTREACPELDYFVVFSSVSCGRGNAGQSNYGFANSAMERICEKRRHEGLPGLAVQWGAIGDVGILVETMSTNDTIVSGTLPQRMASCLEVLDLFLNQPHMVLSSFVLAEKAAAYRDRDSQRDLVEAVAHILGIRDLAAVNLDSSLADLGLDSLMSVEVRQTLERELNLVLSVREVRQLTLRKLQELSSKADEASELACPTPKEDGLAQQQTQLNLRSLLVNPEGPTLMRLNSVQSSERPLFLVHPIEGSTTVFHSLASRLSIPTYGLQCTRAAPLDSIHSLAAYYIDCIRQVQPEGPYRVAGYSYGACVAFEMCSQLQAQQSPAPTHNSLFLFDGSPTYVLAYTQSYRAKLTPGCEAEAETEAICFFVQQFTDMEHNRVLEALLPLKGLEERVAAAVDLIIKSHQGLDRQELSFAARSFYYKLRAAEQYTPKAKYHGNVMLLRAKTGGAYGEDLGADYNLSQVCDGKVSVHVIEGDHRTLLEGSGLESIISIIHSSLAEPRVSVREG
Sequence of Polyadenylate-binding protein 1 (P11940 whole entry): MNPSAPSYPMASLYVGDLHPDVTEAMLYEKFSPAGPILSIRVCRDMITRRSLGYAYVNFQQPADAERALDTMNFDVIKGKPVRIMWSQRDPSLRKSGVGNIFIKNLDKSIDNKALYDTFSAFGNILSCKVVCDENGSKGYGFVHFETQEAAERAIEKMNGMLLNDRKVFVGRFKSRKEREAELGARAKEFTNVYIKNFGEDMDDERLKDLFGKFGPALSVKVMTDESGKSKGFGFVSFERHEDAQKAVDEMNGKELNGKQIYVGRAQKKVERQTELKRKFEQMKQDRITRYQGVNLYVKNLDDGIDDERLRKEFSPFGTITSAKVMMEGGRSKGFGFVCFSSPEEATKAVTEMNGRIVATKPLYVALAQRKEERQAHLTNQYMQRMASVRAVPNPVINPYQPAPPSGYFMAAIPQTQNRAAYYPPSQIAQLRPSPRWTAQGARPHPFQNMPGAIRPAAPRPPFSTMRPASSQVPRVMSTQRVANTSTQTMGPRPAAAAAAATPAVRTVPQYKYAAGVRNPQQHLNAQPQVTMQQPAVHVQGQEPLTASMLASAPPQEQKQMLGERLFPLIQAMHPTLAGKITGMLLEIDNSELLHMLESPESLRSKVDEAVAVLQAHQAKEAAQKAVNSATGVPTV
Sequence of Fructose-bisphosphate aldolase (P9WQA3 whole entry): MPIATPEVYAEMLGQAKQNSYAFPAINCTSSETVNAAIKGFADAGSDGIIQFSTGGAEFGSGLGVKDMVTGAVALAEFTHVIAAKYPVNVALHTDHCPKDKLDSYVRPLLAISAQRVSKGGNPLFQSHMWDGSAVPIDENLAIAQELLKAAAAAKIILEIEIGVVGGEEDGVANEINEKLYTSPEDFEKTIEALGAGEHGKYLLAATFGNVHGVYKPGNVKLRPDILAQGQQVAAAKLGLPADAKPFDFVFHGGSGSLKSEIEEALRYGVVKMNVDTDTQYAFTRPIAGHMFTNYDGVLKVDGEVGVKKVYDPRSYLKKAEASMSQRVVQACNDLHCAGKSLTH
Sequence of Endoribonuclease toxin MazF (P0AE70 whole entry): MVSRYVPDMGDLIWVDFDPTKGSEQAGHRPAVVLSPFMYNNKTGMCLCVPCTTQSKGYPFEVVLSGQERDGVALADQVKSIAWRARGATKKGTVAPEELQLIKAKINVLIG

As to `Oc1ccc(NC(=S)N=Nc2c(O)[nH]c3ccccc23)cc1`, the IC50 was 2.17 µM (active) in assay [1] and > 66 µM (inactive) in assay [2].
For the molecule `N#Cc1c(N2CCCCC2)nc(N)c2c(N)nc(SCC(=O)O)cc12`, the IC50 in assay [3] was 11.8 µM (active); in assay [4], > 7.45 µM (active); in assay [5] it was 8.03 µM (active); in assay [6], 33.7 µM (active).
Broadly, the AC50 is the concentration giving half of the maximal activity seen. `CC1(C)Cc2ccccc2C2=NNC(=O)C2=N1`: the AC50 in assay [7] is 35.3 µM (active).
One may read the EC50 as the concentration at which the effect is half-maximal. As for `O=[N+]([O-])c1ccc(Sc2cccc[n+]2[O-])c2nonc12`, the IC50 in assay [8] is 0.448 µM (active). The EC50 in [9] was > 99 µM (inactive).
Turning to `CCCC(=O)NC(c1ccc(C(C)C)cc1)c1ccc2cccnc2c1O` (stereo unspecified), the concentration at half-maximal activity (AC50) in assay [10] was 1.91 µM (active). For the same molecule, the EC50 in assay [11] is 2.91 µM (active).
For `Oc1c(Cl)cc(Cl)c(Cl)c1Cc1c(O)c(Cl)cc(Cl)c1Cl` [HEXACHLOROPHENE], the IC50 in assay [12] was 0.108 µM (active); in assay [13] it was 0.0312 µM (active); in [14], 5.68 µM (active); in assay [15] it was > 10 µM (inactive); in assay [16], 7.79 µM (active).
